Assay results taken from patent US20150291514A1, “N-Aminosulfonyl Benzamides” (Pfizer Limited, priority 2012, published 2015).
pIC50: −log10 of the molar value. Structures can show the parent of a compound that is named as a salt.

Target: T1, Nav1.7 (or SCN9A) channel (Homo sapiens, UniProt Q15858)
T1 construct: expressed in transfected cells
Test: Nav1.7 (hSCN9A) PatchXpress electrophysiology assay
Assay type: cell-based
Conditions: estimated IC50 from single point electrophysiology data; PatchXpress platform; HEK cells expressing hSCN9A, held at V1/2 of inactivation; read-out: Nav1.7 EIC50
Procedure: The ability of the compounds of formula (I) to block the Nav1.7 (or SCN9A) channel were measured using the assay described below.
Human Embryonic Kidney (HEK) cells were transfected with an hSCN9A construct using lipofectamine reagent (Invitrogen), using standard techniques. Cells stably expressing the hSCN9A constructs were identified by their resistance to G-418 (400 μg/ml). Clones were screened for expression using the whole-cell voltage-clamp technique.
HEK cells stably transfected with hSCN9A were maintained in DMEM medium supplemented with 10% heat-inactivated fetal bovine serum and 400 μg/ml G-418 in an incubator at 37° C. with a humidified atmosphere of 10% CO2. For HTS, cells were harvested from flasks by trypsinization and replated in an appropriate multi-well plate (typically 96 or 384 wells/plate) such that confluence would be achieved within 24 hours of plating. For electrophysiological studies, cells were removed from the culture flask by brief trypsinization and re-plated at low density onto glass cover slips. Cells were typically used for electrophysiological experiments within 24 to 72 hours after plating.
Cover slips containing HEK cells expressing hSCN9A were placed in a bath on the stage of an inverted microscope and perfused (approximately 1 ml/minutes) with extracellular solution of the following composition: 138 mM NaCl, 2 mM CaCl2, 5.4 mM KCl, 1mM MgCl2, 10 mM glucose, and 10 mM HEPES, pH 7.4, with NaOH. […] The osmolarity of the extracellular and intracellular solutions was 300 mOsm/kg and 295 mOsm/kg, respectively. All recordings were made at room temperature (22-24° C.) using AXOPATCH 200B amplifiers and PCLAMP software (Axon Instruments, Burlingame, Calif.).
hSCN9A currents in HEK cells were measured using the whole-cell configuration of the patch-clamp technique (Hamill et al., 1981). Uncompensated series resistance was typically 2 to 5 mega ohms and >85% series resistance compensation was routinely achieved. As a result, voltage errors were negligible and no correction was applied. Current records were acquired at 20 to 50 KHz and filtered at 5 to 10 KHz.
HEK cells stably transfected with hSCN9A were viewed under Hoffman contrast optics and placed in front of an array of flow pipes emitting either control or compound-containing extracellular solutions. All compounds were dissolved in dimethyl sulfoxide to make 10 mM stock solutions, which were then diluted into extracellular solution to attain the final concentrations desired. […] The voltage-dependence of inactivation was determined by applying a series of depolarizing prepulses (8 sec long in 10 mV increments) from a negative holding potential. The voltage was then immediately stepped to 0 mV to assess the magnitude of the sodium current. Currents elicited at 0 mV were plotted as a function of prepulse potential to allow estimation of the voltage at which 50% of the channels were inactivated (midpoint of inactivation or V1/2). Compounds were tested for their ability to inhibit hSCN9A sodium channels by activating the channel with a 20 msec voltage step to 0 mV following an 8 second conditioning prepulse to the empirically determined V1/2. Compound effect (% inhibition) was determined by difference in current amplitude before and after application of test compounds. For ease of comparison, “estimated IC-50” (EIC50) values were calculated from single point electrophysiology data by the following equation, (tested concentration, uM)×(100-% inhibition/% inhibition). Inhibition values <20% and >80% were excluded from the calculation.
Electrophysiological assays were conducted with PatchXpress 7000 hardware and associated software (Molecular Devices Corp). All assay buffers and solutions were identical to those used in conventional whole-cell voltage clamp experiments described above. hSCN9A cells were grown as above to 50%-80% confluency and harvested by trypsinization. […]

T1 sequence (Q15858 whole entry): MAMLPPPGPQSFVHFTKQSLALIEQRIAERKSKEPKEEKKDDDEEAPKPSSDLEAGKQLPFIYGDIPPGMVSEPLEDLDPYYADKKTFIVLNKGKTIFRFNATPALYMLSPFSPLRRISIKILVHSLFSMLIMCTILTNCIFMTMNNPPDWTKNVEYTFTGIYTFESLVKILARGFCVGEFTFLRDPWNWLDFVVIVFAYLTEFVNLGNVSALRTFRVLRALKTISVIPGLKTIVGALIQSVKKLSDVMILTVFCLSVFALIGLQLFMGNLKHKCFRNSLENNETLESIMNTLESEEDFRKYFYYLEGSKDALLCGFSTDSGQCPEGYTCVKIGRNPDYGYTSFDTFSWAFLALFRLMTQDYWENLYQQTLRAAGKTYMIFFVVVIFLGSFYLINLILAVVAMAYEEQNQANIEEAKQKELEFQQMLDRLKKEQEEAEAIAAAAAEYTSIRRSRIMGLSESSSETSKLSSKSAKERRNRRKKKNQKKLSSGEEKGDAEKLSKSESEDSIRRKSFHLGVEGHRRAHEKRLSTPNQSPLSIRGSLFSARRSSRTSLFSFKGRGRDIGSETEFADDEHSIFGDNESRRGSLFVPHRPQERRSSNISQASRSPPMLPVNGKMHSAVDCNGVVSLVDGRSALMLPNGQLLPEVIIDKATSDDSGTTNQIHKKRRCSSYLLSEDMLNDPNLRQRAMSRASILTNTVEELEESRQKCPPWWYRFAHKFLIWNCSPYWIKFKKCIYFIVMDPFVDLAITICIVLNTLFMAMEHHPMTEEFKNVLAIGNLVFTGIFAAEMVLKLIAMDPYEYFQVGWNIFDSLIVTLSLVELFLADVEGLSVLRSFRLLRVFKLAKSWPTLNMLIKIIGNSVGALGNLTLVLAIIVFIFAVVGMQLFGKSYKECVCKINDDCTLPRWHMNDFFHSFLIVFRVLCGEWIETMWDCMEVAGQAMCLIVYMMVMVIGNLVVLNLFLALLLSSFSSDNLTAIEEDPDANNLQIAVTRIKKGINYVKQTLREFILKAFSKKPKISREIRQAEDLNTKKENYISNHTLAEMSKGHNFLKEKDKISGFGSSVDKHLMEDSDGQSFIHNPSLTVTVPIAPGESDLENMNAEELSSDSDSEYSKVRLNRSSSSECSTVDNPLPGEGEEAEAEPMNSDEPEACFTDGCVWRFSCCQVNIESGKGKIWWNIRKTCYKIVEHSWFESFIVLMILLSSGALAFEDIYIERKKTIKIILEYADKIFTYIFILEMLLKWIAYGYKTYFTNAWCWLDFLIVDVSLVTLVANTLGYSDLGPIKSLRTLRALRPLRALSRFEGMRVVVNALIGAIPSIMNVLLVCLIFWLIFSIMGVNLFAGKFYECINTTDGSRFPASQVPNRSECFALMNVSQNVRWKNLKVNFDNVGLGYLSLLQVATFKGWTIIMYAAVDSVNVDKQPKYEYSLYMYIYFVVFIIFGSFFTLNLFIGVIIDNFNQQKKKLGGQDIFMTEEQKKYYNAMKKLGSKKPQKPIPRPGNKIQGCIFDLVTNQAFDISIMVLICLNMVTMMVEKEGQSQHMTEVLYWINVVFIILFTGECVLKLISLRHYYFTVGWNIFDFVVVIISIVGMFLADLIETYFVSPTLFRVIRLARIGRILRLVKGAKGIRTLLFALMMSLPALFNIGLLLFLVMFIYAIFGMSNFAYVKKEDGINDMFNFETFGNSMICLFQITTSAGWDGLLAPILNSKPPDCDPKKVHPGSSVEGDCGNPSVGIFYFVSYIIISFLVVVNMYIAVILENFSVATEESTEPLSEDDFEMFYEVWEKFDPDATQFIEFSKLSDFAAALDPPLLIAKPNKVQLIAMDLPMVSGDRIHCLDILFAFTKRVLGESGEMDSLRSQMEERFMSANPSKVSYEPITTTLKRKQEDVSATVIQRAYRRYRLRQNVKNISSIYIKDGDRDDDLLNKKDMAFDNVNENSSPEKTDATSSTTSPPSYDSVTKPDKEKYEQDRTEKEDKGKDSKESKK

Row | Structure (SMILES) | pIC50
1 | CN(CC1CC1)c1ncc(Oc2cc(F)c(C(=O)NS(=O)(=O)N(C)C)cc2F)cc1Cl [Example 23, 4-({5-chloro-6-[(cyclopropylmethyl)(methyl)amino]pyridine-3-yl}oxy)-N-[(dimethylamino)sulfonyl]-2,5-difluorobenzamide formate salt] | 6.17
2 | CN(C)S(=O)(=O)NC(=O)c1cc(F)c(Oc2cnc(NC34CC(C3)C4)c(Cl)c2)cc1F [Example 28, 4-{[6-(pyridin[1.1.1]pent-1-ylamino)-5-chloropyridin-3-yl]oxy}-N-[(dimethylamino)sulfonyl]-2,5-difluorobenzamide formate salt] | 6.80
3 | CC(C)Oc1ncc(Oc2cc(F)c(C(=O)NS(=O)(=O)N3CCC3)cc2F)cc1Cl [Example 38, N-(azetidin-1-ylsulfonyl)-4-(5-chloro-6-isopropoxypyridin-3-yl)oxy)-2,5-difluorobenzamide diethylamine salt] | 6.74
4 | CN(C)S(=O)(=O)NC(=O)c1cc(F)c(Oc2cnc(OC(C(F)(F)F)C(F)(F)F)c(Cl)c2)cc1F [Example 37] | 6.33
5 | CN(C)S(=O)(=O)NC(=O)c1cc(F)c(Oc2cnc(OCC(C)(C)F)c(Cl)c2)cc1F [Example 33, 4-[(5-chloro-6-(2-fluoro-2-methylpropoxy)pyridin-3-yl)oxy]-N-[(dimethylamino)sulfonyl]-2,5-difluorobenzamide diethylamine salt] | 6.30
6 | CN(C)S(=O)(=O)NC(=O)c1cc(F)c(Oc2cnc(NCC3CC3)c(Cl)c2)cc1F [Example 21, 4-({5-chloro-6-[(cyclopropylmethyl)amino]pyridine-3-yl}oxy)-N-[(dimethylamino)sulfonyl]-2,5-difluorobenzamide formate salt] | 6.22

Results, then the compound that gave them:

Row | pIC50 | Structure (SMILES)
7 | 5.32 | CNS(=O)(=O)NC(=O)c1ccc(Oc2ccc(Cl)c(C(F)(F)F)c2)cc1 [Example 3, 4-[4-chloro-3-(trifluoromethyl)phenoxy]-N-[(methylamino)sulfonyl]benzamide diethylamine salt]
8 | 5.00 | CCNS(=O)(=O)NC(=O)c1ccc(Oc2ccccc2-c2ccccc2)c(C#N)c1 [Example 19, 4-(biphenyl-2-yloxy)-3-cyano-N-[(ethylamino)sulfonyl]benzamide diethylamine salt]
9 | < 6.00 | COc1ccccc1Oc1cc(F)c(C(=O)NS(=O)(=O)N(C)C)cc1F [Example 13, N-[(dimethylamino)sulfonyl]-2,5-difluoro-4-(2-methoxyphenoxy)benzamide]
10 | 7.00 | O=C(NS(=O)(=O)N1CCC1)c1cc(Cl)c(Oc2ccc(Cl)c(Cl)c2)cc1F [Example 42, N-(azetidin-1-ylsulfonyl)-5-chloro-4-(3,4-dichlorophenoxy)-2-fluorobenzamide]
